Laboratory results reported in patent US4435570A, “5-(Phenyl or benzyl amino)methyl-pyrrolo[2,3-d]pyrimidin-4-one” (Takeda Chemical Industries, Ltd., priority 1981, dated 1984).
Values after ≈ are worked out from the molar mass of the structure shown.

Columns and labels:
[1] = tested on: rat liver tRNA-guanine transglycosidase; assay: Intake of compound into tRNA (tRNA-guanine transglycosidase, [3H]guanine-labeled tRNA); assay type: biochemical; settings: 0.02 OD260 of compound, 0.5 unit enzyme, 100 μl, 37° C., 17 hrs
Experimental: Intake of the compound of Example 1 into tRNA [^3 H]guanine-labeled tRNA* (8000 cpm), 70 mM Trishydrochloride, 60 mM magnesium chloride, 0.5 unit of rat liver tRNA-guanine transglycosidase and 0.02 OD260 of the compound of Example 1 were adjusted to 100 μl and reacted at 37° C. for 17 hrs. The reaction mixture was absorbed into a strip of Whatman 3 MM filter paper and washed three times with a 5% aqueous solution of trichloroacetic acid, once each with ethanol-ether (1:1) and ether. After drying, the paper strip was scanned with a toluenic scintillant.
* tRNA labeled with [^3 H] guanine in the first letter of its anticodon.
The 0.02 OD260 equivalent of the compound of Example 3 was adjusted to 100 μl and subjected to the same procedure as Experimental Example 1.

[2] = tested on: L5178Y cells (tumor cells); assay: Inhibitory effect upon the multiplication of tumor cells; assay type: cell-based; settings: RPMI 1640 medium+10% fetal calf serum, 48 hours, 37° C.; for IC50: Mus musculus, read-out: ED50 (concentration giving a cell count of 50% of control)
Experimental: The inhibitory effect of compound (I) upon the multiplication of cells was detected using L5178Y cells (tumor cells) in RPMI 1640 medium+10% fetal calf serum for 48 hours at 37° C.
The result was expressed in the concentration of the drug giving a cell count of 50% (ED50) with the average number of cells for the control (not modicated) group on the 2nd day being taken as 100%.

[3] = tested on: tRNA in the tumor cells (S-180 cancer-bearing mice); assay: Intake of the radioactive compound into a tumor tissue (tRNA of tumor cells of S-180 cancer-bearing mice); assay type: in vivo; settings: 100 mg (0.17 mCi)/kg, tail vein once, 24 hours after administration, S-180 i.p. ddN mice
Experimental: Intake of the radioactive compound of Example 2 into a tumor tissue
Using S-180 cancer-bearing mice (ddN mice, 10^7 tumor cells/mouse as transplanted i.p.), 100 mg (0.17 mCi)/kg of the radioactive compound of Example 2 was administered into the tail vein once. Twenty-four hours after administration, the animal was sacrificed and the tumor cells were taken out and the rate of takeup of the radioactive compound into tRNA in the tumor cells was determined. […] [Experimental method: N. Okada et al., Biochem., 19, 395 (1980)]

| taken into tRNA [1] [%] | IC50 [2] [µg/mL] | Compound | rate of takeup of the radioactive compound into tRNA in the tumor cells (tRNA substituted) [3] [%] | ED50 (concentration giving a cell count of 50% of control) [2] [µg/mL] |
| --- | --- | --- | --- | --- |
| 59 | 20 (≈ 36.4 µM) | N=C(NCc1c[nH]c2nc(N)[nH]c(=O)c12)c1cc(I)c(O)c(I)c1 [Example 1, 2-amino-5-[α-(3,5-diiodo-4-hydroxy)phenyliminomethylamino]methylpyrrolo[2,3-d]pyrimidin-4-one] | – | – |
| – | – | N=C(NCc1c[nH]c2nc(N)[nH]c(=O)c12)c1cc(I)c(O)c(I)c1 [Example 2, radioactive 2-amino-5-[α-(3,5-diiodo-4-hydroxy)phenyliminomethylamino]methylpyrrolo[2,3-d]pyrimidin-4-one] | ~100 | – |
| 93 | 35 (≈ 88.6 µM) | Nc1nc2[nH]cc(CNCc3ccc(I)cc3)c2c(=O)[nH]1 [Example 3, 2-amino-5-(p-iodobenzyl)aminomethylpyrrolo[2,3-d]pyrimidin-4-one] | – | – |
| – | – | Nc1nc2[nH]cc(CN[C@H]3C=C[C@H](O)[C@@H]3O)c2c(=O)[nH]1 [Q base, reference compound] | – | > 200 |
